Values quoted from earlier work, collected in paper PMC13179673 (European journal of pharmaceutical sciences : official …, 2025).

Legend:
[1] = biological pH at 37°C
[2] = test system: OHT rabbit eyes; parameters: method as in Behar-Cohen et al., 1996; details: eyedrop, ref Behar-Cohen et al., 1996

[NH-]c1c[n+](N2CCOCC2)no1 [SIN-1, linsidomine]
half-life [1]: < 1 h
duration of IOP-lowering effect [2]: ≤ 3 h
